pIC50: −log10 of the molar value.

In ChEMBL document CHEMBL5729163, “Substituted cyclohexyl compounds as NOP inhibiiors” (2022) one finds IC50 data, which are given here for 64 molecules.

In this assay the target is Nociceptin receptor (Homo sapiens, UniProt P41146). The assay is described as follows: Cell-Based NOP Assay: Formula (I) compounds were tested for antagonism of the nociceptin receptor (NOP) in a cell-based cAMP assay, using the LANCE cAMP Detection Kit, Perkin Elmer (Waltham, Mass.). This assay (LANCE cAMP) is a homogeneous, time-resolved fluorescence resonance energy transfer (TR-FRET) immunoassay designed to measure cAMP produced upon modulation of adenylyl cyclase activity by G protein-coupled receptors (GPCRs).ProtocolCells expressing human opioid NOP (ValiScreen cell line, cat #ES-230-C Perkin Elmer (Waltham, Mass.) were dispensed in simulation buffer (5 mM Hepes, 0.1% BSA, 0.5 mM IBMX in Hanks Buffered Saline Solution) at 2.5 μL cells per well (400 cells/well) into a 1536 white TC-treated assay plate. Compound was then added and plates were incubated for 15 minutes at room temperature. To each well was added 2.5 μL of a solution containing forskolin (3 μM final) and nociceptin peptide (390 pM final) diluted in stimulation buffer, and the plates were incubated for 30 minutes at room temperature. To each well was dispensed 5 μL of LANCE Ultra detection (1:300 dilution of anti-cAMP ULight with a 1:100 dilution of Eu-cAMP tracer diluted in cAMP Detection Buffer) reagent, and the plates were incubated for 1 hr at room temperature. The plate was then read on the ViewLux microplate reader (Perkin Elmer, Waltham, Mass.) using the LANCE 1536 protocol with 60 second exposure times and 50 μs delay. This protocol has an excitation wavelength of 340 nm (DUG11 filter) and emission wavelengths of 615 nm (Eu-Donor) and 665 nm (Alexa 647 cAMP antibody acceptor).Data AnalysisData was analyzed, normalized, and visualized using ACAS (John McNeil & Co.). Efficacy was calculated using activity of the vehicle (DMSO) as 0% efficacy and the activity of the corresponding reference positive control (SCH 221510, Tocris Bioscience (Pittsburgh, Pa.), Catalog number 3240) as 100% efficacy. Activity was calculated as the ratio of donor and acceptor emissions. All curve fits and IC50 determinations were performed using a non-linear regression model. The IC50 value was measured as the concentration at which half-maximal response was calculated.
Sequence of Nociceptin receptor (P41146 whole entry): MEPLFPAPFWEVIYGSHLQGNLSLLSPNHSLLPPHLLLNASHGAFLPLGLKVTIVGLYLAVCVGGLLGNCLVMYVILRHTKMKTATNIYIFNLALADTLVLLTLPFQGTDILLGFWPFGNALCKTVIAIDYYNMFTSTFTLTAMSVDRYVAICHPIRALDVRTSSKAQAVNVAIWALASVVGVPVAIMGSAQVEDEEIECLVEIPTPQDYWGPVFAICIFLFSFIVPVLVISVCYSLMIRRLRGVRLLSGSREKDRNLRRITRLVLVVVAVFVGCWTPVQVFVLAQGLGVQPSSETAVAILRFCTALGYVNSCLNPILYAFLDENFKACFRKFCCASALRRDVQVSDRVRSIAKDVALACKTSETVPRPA
Usually pIC50 stands for −log10 of the IC50, conventionally taken in molar units. As to `NC(=O)C1(NCC[C@H]2CC[C@@H](c3ccc(F)cc3Cl)CC2)CCCOC1` (some centres undefined), the pIC50 was 6.00 to 7.00. In the case of `Fc1ccc(Cl)c(C2CCC(CCNC3CCCCC3)CC2)c1` (centres undefined) it was 6.00 to 7.00; in that of `Cc1cccnc1[C@H]1CC[C@@H](CCNC2CCOCC2)CC1`, 7.00 to 8.00.

Regarding `CC1(NCCC2CCC(c3ncc(F)cc3Cl)CC2)CCCC1` (centres undefined), the pIC50 is 7.00 to 8.00. In the case of `OCC1(NCC[C@H]2CC[C@@H](c3ccc(F)cc3Cl)CC2)CCOCC1`, the pIC50 is 8.00 to 9.00. In the case of `Cc1cc(F)ccc1C1CCC(CCNC2CCOCC2)CC1` (centres undefined) it was 8.00 to 9.00. To `CNC(=O)C1(NCC[C@H]2CC[C@@H](c3ccc(F)cc3Cl)CC2)CCOCC1` belongs over 9.00; to `Cc1cc(F)cc(F)c1[C@H]1CC[C@@H](CCNC2(C(N)=O)CCOCC2)CC1`, 8.00 to 9.00; to `Cc1c(C#N)cccc1[C@H]1CC[C@@H](CCNC2CCOCC2)CC1`, 6.00 to 7.00. In the case of `Fc1cnc(C2CCC(CCNC3(C4CC4)CCOCC3)CC2)c(Cl)c1` (centres undefined) it was 7.00 to 8.00.

With `Clc1cccnc1C1CCC(CCNC2CCCCC2)CC1` (centres undefined), the pIC50 was 6.00 to 7.00. Take `Fc1cnc([C@H]2CC[C@@H](CCNC3CCOCC3)CC2)c(Cl)c1`: the pIC50 is over 9.00. On to `CC1(NCCC2CCC(c3ccccc3Cl)CC2)CCOCC1` (centres undefined), for which the pIC50 was 6.00 to 7.00. `CNC(=O)C1(NCC[C@H]2CC[C@H](c3c(F)cncc3Cl)CC2)CCOCC1`: the pIC50 is 7.00 to 8.00.

As to `Cc1cc(F)ccc1C1CCC(CCNC2(C)CCOCC2)CC1` (centres undefined), the pIC50 is 6.00 to 7.00. For the molecule `Cc1cccnc1C1CCC(CCNC2CCCCC2)CC1` (centres undefined), the pIC50 was 6.00 to 7.00. For `Fc1cc(Cl)ccc1C1CCC(CCNC2CCCCC2)CC1` (centres undefined), the pIC50 was 8.00 to 9.00.

Turning to `NC(=O)C1(NCC[C@H]2CC[C@@H](c3ccc(F)cc3Cl)CC2)CCCC1`, the pIC50 was 7.00 to 8.00.

For the molecule `Fc1ccc(Cl)c(C2CCC(CCNC3CCCC3)CC2)c1` (centres undefined), the pIC50 is 7.00 to 8.00.

As to `Cc1cc(F)c(F)cc1[C@H]1CC[C@@H](CCNC2(C(N)=O)CCOCC2)CC1`, the negative logarithm of the IC50 (pIC50) is 7.00 to 8.00. In the case of `Cc1cc(F)ccc1C1CCC(CCNC2CCCCC2)CC1` (centres undefined) it was 6.00 to 7.00; in that of `Fc1ccc([C@H]2CC[C@@H](CCNC3CCOCC3)CC2)c(F)c1`, 8.00 to 9.00.

Consider `Fc1ccc([C@H]2CC[C@@H](CCNC3CCCC3)CC2)c(Cl)c1`, for which the negative-log IC50 (pIC50) was over 9.00. To `COCC1(NCCC2CCC(c3cc(F)ccc3Cl)CC2)CCOCC1` (centres undefined) belongs 7.00 to 8.00. For `OC1CCCC1NCC[C@H]1CC[C@@H](c2ccc(F)cc2Cl)CC1` (some centres undefined), the pIC50 is over 9.00.

In the case of `CC1(NCCC2CCC(c3ncc(F)cc3Cl)CC2)CCOCC1` (centres undefined), the pIC50 is 6.00 to 7.00. In the case of `O=C1C[C@@H](NCC[C@H]2CC[C@H](c3ncc(F)cc3Cl)CC2)CCN1` it was 6.00 to 7.00; in that of `COCC1(NCCC2CCC(c3ccc(F)cc3F)CC2)CCOCC1` (centres undefined), 7.00 to 8.00.

As to `Fc1cc(Cl)ccc1C1CCC(CCNC2CCOCC2)CC1` (centres undefined), the pIC50 was 8.00 to 9.00. For `Fc1ccc([C@H]2CC[C@@H](CCNC3CCOCC3)CC2)c(Cl)c1`, the pIC50 is over 9.00. For the molecule `Cc1cc(F)cc(F)c1[C@H]1CC[C@H](CCNC2(C(N)=O)CCOCC2)CC1`, the pIC50 was 8.00 to 9.00.

With `COCC1(NCCC2CCC(c3cccc(F)c3Cl)CC2)CCOCC1` (centres undefined), the pIC50 is 6.00 to 7.00. With `NC(=O)C1(NCC[C@H]2CC[C@@H](c3cccc(F)c3Cl)CC2)CCOCC1`, the negative logarithm of the IC50 (pIC50) was 6.00 to 7.00. To `N#C[C@H]1CC[C@@H](NCC[C@H]2CC[C@@H](c3ccc(F)cc3C(F)(F)F)CC2)CC1` belongs over 9.00. To `Fc1cccc(Cl)c1C1CCC(CCNC2CCCC2)CC1` (centres undefined) belongs 8.00 to 9.00; to `CCNC(=O)C1(NCC[C@H]2CC[C@@H](c3ncc(F)cc3Cl)CC2)CCOCC1`, 8.00 to 9.00; to `Fc1cnc(C2CCC(CCNC3CCCCC3)CC2)c(Cl)c1` (centres undefined), 8.00 to 9.00. In the case of `Fc1ccc(C2CCC(CCNC3CCCCC3)CC2)c(F)c1` (centres undefined) it was 7.00 to 8.00.

For `O=C1C[C@@H](NCC[C@H]2CC[C@@H](c3ncc(F)cc3Cl)CC2)CCN1`, the pIC50 was 7.00 to 8.00. To `NC(=O)C1(NCC[C@H]2CC[C@H](c3c(F)cc(F)cc3F)CC2)CCOCC1` belongs 8.00 to 9.00; to `CNC(=O)C1(NCC[C@H]2CC[C@@H](c3ccc(F)cc3F)CC2)CCOCC1`, 7.00 to 8.00.

In the case of `O=C1C[C@@H](NCC[C@H]2CC[C@@H](c3ccc(F)cc3Cl)CC2)CCN1`, the pIC50 is 8.00 to 9.00. Regarding `CNC(=O)C1(NCC[C@H]2CC[C@H](c3ccc(F)cc3C(F)(F)F)CC2)CCOCC1`, the negative-log IC50 (pIC50) is 8.00 to 9.00.

With `COCC1(NCC[C@H]2CC[C@H](c3ncc(F)cc3Cl)CC2)CCOCC1`, the negative-log IC50 (pIC50) was 6.00 to 7.00.

`CNC(=O)C1(NCC[C@H]2CC[C@@H](c3c(F)cncc3Cl)CC2)CCOCC1`: the negative logarithm of the IC50 (pIC50) is 8.00 to 9.00.

Take `NC(=O)C1(NCC[C@H]2CC[C@@H](c3c(F)cc(F)cc3F)CC2)CCOCC1`: the pIC50 is 6.00 to 7.00.

On to `NC(=O)C1(NCC[C@H]2CC[C@@H](c3ncc(F)cc3Cl)CC2)CCOCC1`, for which the pIC50 is 7.00 to 8.00. Take `CC1(NCC[C@H]2CC[C@@H](c3ncc(F)cc3Cl)CC2)CCNC(=O)C1` (some centres undefined): the pIC50 was 6.00 to 7.00. In the case of `COCC1(NCCC2CCC(c3c(F)cccc3Cl)CC2)CCOCC1` (centres undefined) it was 7.00 to 8.00; in that of `COCC1(NCC[C@H]2CC[C@@H](c3ncc(F)cc3Cl)CC2)CCOCC1`, 7.00 to 8.00; in that of `Cc1cccnc1C1CCC(CCNC2(C)CCCC2)CC1` (centres undefined), 6.00 to 7.00. In the case of `NC(=O)C1(NCC[C@H]2CC[C@H](c3ccc(F)cc3F)CC2)CCOCC1` it was 6.00 to 7.00; in that of `Cc1cnccc1[C@H]1CC[C@@H](CCNC2CCOCC2)CC1`, 6.00 to 7.00; in that of `CC(=O)N1CCC(NCC[C@H]2CC[C@@H](c3ccc(F)cc3Cl)CC2)CC1`, 7.00 to 8.00. For the molecule `NC(=O)C1(NCC[C@H]2CC[C@@H](c3ccc(F)cc3Cl)CC2)CCOC1` (some centres undefined), the pIC50 is 6.00 to 7.00.

On to `O=C(NCC1CC1)C1(NCC[C@H]2CC[C@@H](c3ccc(F)cc3Cl)CC2)CCCC1`, for which the pIC50 was 6.00 to 7.00. In the case of `Cc1cnccc1C1CCC(CCNC2CCCCC2)CC1` (centres undefined), the negative-log IC50 (pIC50) is 6.00 to 7.00. To `CN1CCC(NCCC2CCC(c3c(F)cccc3Cl)CC2)CC1` (centres undefined) belongs 6.00 to 7.00. To `CN1CCC(NCCC2CCC(c3cc(F)ccc3Cl)CC2)CC1` (centres undefined) belongs 6.00 to 7.00; to `COCC1(NCC[C@H]2CC[C@@H](c3ccc(F)cc3Cl)CC2)CCNC(=O)C1` (some centres undefined), 7.00 to 8.00. In the case of `NC(=O)C1(NCC[C@H]2CC[C@@H](c3ccc(F)cc3F)CC2)CCOCC1` it was 7.00 to 8.00. In the case of `NC(=O)C1(NCC[C@H]2CC[C@H](c3ccc(F)cc3Cl)CC2)CCOCC1`, the pIC50 was 7.00 to 8.00. For `CNC(=O)C1(NCCC2CCC(c3ncc(F)cc3Cl)CC2)CCCC1` (centres undefined), the pIC50 was 7.00 to 8.00. Regarding `CNC(=O)C1(NCC[C@H]2CC[C@@H](c3ccc(F)cc3C(F)(F)F)CC2)CCOCC1`, the pIC50 was 8.00 to 9.00.
